Among the test systems are A498 renal; ACHN renal; HCT-116 colon; HCT-15 colon; HOP-62 NSCLC; HOP-92 NSCLC; HT29 colon; M14 melanoma; MDA-N; OVCAR-4 ovarian; OVCAR-8 ovarian; PC-3 prostate; RXF 393 renal; SK-MEL-28 melanoma; SK-MEL-5 melanoma; SNB-19 CNS; SNB-75 CNS; TK-10 renal; U251 CNS; UACC-257 melanoma.
Common to all, as to experiment: growth of human tumour cells (NCI), 48 h

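Test compounds were applied to cells in 96-well plates for 48 hours at 5 doses. The concentration for full growth arrest is given as TGI.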

Consider `O=C1CCc2cc3c(cc21)CC1(Cc2ccccc2C1)C3`, for which the TGI in the assay with A498 renal was 66.6 µM; in the assay on ACHN renal, over 91.7 µM; with HCT-116 colon, over 46.3 µM; with HCT-15 colon, over 100 µM; with HOP-62 NSCLC, over 84.6 µM; with HOP-92 NSCLC it was 35.6 µM. Besides, the TGI in the assay with HT29 colon was 14.2 µM; in the assay on M14 melanoma, over 100 µM; in the assay on MDA-N, 4.76 µM; with OVCAR-4 ovarian, over 100 µM; with OVCAR-8 ovarian, over 100 µM; in the assay on PC-3 prostate, over 93.6 µM. Besides, the TGI in the assay on RXF 393 renal is over 76.8 µM; with SK-MEL-28 melanoma, over 100 µM; in the assay on SK-MEL-5 melanoma it was 17.8 µM; with SNB-19 CNS it was over 100 µM; in the assay with SNB-75 CNS it was over 60.8 µM; with TK-10 renal it was over 100 µM. Also, the TGI in the assay on U251 CNS is over 100 µM; in the assay with UACC-257 melanoma, 65.2 µM.

Consider `Cc1cc(C2(c3cc(C)c(O)c(C(=O)O)c3)OS(=O)(=O)c3ccccc32)cc(C(=O)O)c1O`, for which the TGI in the assay on A498 renal, with ACHN renal, with HCT-116 colon, with HCT-15 colon, in the assay on HOP-62 NSCLC and in the assay with HOP-92 NSCLC was over 100 µM throughout. The TGI in the assay with HT29 colon, in the assay on M14 melanoma, with MDA-N, in the assay with OVCAR-4 ovarian, in the assay with OVCAR-8 ovarian and in the assay on PC-3 prostate was over 100 µM in each case. In addition, the TGI in the assay on RXF 393 renal, in the assay on SK-MEL-28 melanoma, with SK-MEL-5 melanoma, with SNB-19 CNS, with SNB-75 CNS and with TK-10 renal was over 100 µM throughout. For the same compound, the TGI in the assay on U251 CNS and in the assay with UACC-257 melanoma was over 100 µM in each case.

For `CN(N)/N=N/c1nc[nH]c1C(N)=O`, the TGI in the assay with A498 renal, in the assay on ACHN renal, with HCT-116 colon, in the assay with HCT-15 colon, in the assay on HOP-62 NSCLC and in the assay on HOP-92 NSCLC was over 100 µM throughout. In addition, the TGI in the assay with HT29 colon, in the assay with M14 melanoma, in the assay with MDA-N, with OVCAR-4 ovarian, in the assay on OVCAR-8 ovarian and with PC-3 prostate was over 100 µM throughout. Further, the TGI in the assay on RXF 393 renal, in the assay on SK-MEL-28 melanoma, in the assay on SK-MEL-5 melanoma, with SNB-19 CNS, in the assay with SNB-75 CNS and in the assay on TK-10 renal was over 100 µM throughout. Further, the TGI in the assay on U251 CNS and in the assay on UACC-257 melanoma was over 100 µM each time.

For the compound `CCc1cc2c(cc1CCCC(=O)O)CC1(Cc3ccc(C(=O)O)cc3C1)C2` (stereo not given), the TGI with A498 renal, in the assay with ACHN renal, with HCT-116 colon, in the assay with HCT-15 colon, with HOP-62 NSCLC and in the assay on HOP-92 NSCLC was over 100 µM throughout. Moreover, the TGI in the assay on HT29 colon, in the assay on M14 melanoma, in the assay with MDA-N, with OVCAR-4 ovarian, in the assay on OVCAR-8 ovarian and in the assay on PC-3 prostate was over 100 µM each time. Moreover, the TGI in the assay on RXF 393 renal, in the assay with SK-MEL-28 melanoma, with SK-MEL-5 melanoma, in the assay with SNB-19 CNS, with SNB-75 CNS and in the assay on TK-10 renal was over 100 µM in each case. Besides, the TGI with U251 CNS and in the assay with UACC-257 melanoma was over 100 µM each time.

On to `N=c1oc2ccc(Cl)cc2cc1C(=O)Nc1ccccc1`, for which the TGI is over 100 µM in the assay with A498 renal; over 100 µM with ACHN renal; over 100 µM in the assay on HCT-116 colon; over 100 µM in the assay with HCT-15 colon; over 94.8 µM in the assay with HOP-62 NSCLC; over 100 µM with HOP-92 NSCLC. Also, the TGI in the assay on HT29 colon, in the assay on M14 melanoma, in the assay with MDA-N, in the assay with OVCAR-4 ovarian, in the assay on OVCAR-8 ovarian and in the assay on PC-3 prostate was over 100 µM each time. In addition, the TGI is over 100 µM in the assay on RXF 393 renal; over 100 µM in the assay on SK-MEL-28 melanoma; over 100 µM in the assay on SK-MEL-5 melanoma; over 100 µM in the assay on SNB-19 CNS; over 86.4 µM in the assay on SNB-75 CNS; over 100 µM in the assay on TK-10 renal. Further, the TGI in the assay on U251 CNS is over 93 µM; in the assay on UACC-257 melanoma, over 100 µM.

Regarding `NCCCc1ccc2oc3ccccc3c2c1`, the TGI was 30.2 µM in the assay with A498 renal; 32.1 µM in the assay with ACHN renal; 29.7 µM in the assay on HCT-116 colon; 36.4 µM in the assay on HCT-15 colon; 32 µM in the assay with HOP-62 NSCLC; 43 µM in the assay with HOP-92 NSCLC. The TGI in the assay on HT29 colon is 26 µM; in the assay with M14 melanoma, 30.1 µM; in the assay on MDA-N it was 29.6 µM; in the assay on OVCAR-4 ovarian, 38.3 µM; in the assay on OVCAR-8 ovarian, 57 µM; in the assay on PC-3 prostate, 33.1 µM. The TGI with RXF 393 renal turned out to be 32.4 µM; in the assay on SK-MEL-28 melanoma, 32.9 µM; in the assay on SK-MEL-5 melanoma it was 28.5 µM; in the assay on SNB-19 CNS, 31 µM; in the assay with SNB-75 CNS it was 30.6 µM; with TK-10 renal it was 30.4 µM. The figures for the TGI in the assay with U251 CNS and with UACC-257 melanoma were 33.4 µM and 32.1 µM, respectively.
